Legend:
[1] = molecular target: T1, human adenosine A2b receptor (Homo sapiens, UniProt P29275); test: Cellular reporter gene (CRE-luciferase) A2b receptor antagonist assay in recombinant CHO-K1 cells stimulated with NECA; assay type: cell-based; details: recombinant CHO-K1 cell line, co-incubation with EC50 concentration of NECA, 3 hours, in some cases means, rounded to two significant digits
T1 construct: expressed in transfected cells; host or cells: CHO-K1 (Chinese Hamster Ovary) with CRE-luciferase reporter
T1 sequence (P29275 1-332): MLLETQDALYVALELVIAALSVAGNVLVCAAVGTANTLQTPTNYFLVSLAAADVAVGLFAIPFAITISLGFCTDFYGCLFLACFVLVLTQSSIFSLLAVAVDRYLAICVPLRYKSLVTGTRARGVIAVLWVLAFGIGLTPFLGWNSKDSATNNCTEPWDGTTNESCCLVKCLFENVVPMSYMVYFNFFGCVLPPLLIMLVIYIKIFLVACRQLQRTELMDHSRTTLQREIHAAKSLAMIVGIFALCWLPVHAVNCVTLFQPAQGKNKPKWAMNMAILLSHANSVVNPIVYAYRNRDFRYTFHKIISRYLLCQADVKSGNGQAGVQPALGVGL
Procedure, shortened: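 CHO-K1 cells expressing human A2b receptor with a CRE-driven firefly luciferase reporter, co-incubated with test compound and NECA at its same-day EC50 concentration. Luminescence read 3 hours after NECA addition.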

[2] = test system: IL-6 release by human fibroblast cell line LL29; test: NECA-induced IL-6 release by LL29 fibroblasts (ELISA); assay type: cell-based; details: NECA 10 μM, 24 hours incubation, IL-6 ELISA of supernatant, in some cases means, rounded to two significant digits
Experimental: B-2. Measurement of NECA-Induced IL-6 Release by LL29 Fibroblasts
Stimulation of fibroblasts with adenosine or the adenosine analog 5′-N-ethylcarboxamidoadenosine (NECA) leads to release of the pro-inflammatory and pro-fibrotic cytokine IL-6 which can be prevented by inhibition of the A2b receptor.
Accordingly, confluent cells of the human fibroblast cell line LL29 were treated with the test substances and stimulated with NECA (10 μM). After an incubation time of 24 hours, the cell supernatant is removed and human IL-6 in the cell supernatant is determined by ELISA (Quantikine® IL6 ELISA, R&D Systems, Minneapolis, USA).

SMILES | IC50 [1] [nM] | IC50 [2] [nM]
CCn1c(=O)c2c(C)c(C(=O)N3CCNC(=O)C3)sc2n(CCC(F)(F)F)c1=O [Example 35, 3-Ethyl-5-methyl-6-[(3-oxopiperazin-1-yl)carbonyl]-1-(3,3,3-trifluoropropyl)thieno[2,3-d]pyrimidine-2,4(1H,3H)-dione] | 120 | 250
Cc1c(C(=O)N2CCC(O)CC2)sc2c1c(=O)n(CCc1ccncc1)c(=O)n2CCC(F)(F)F [Example 54, 6-[(4-Hydroxypiperidin-1-yl)carbonyl]-5-methyl-3-[2-(pyridin-4-yl)ethyl]-1-(3,3,3-trifluoropropyl)thieno[2,3-d]pyrimidine-2,4(1H,3H)-dione] | 76 | 330
CCn1c(=O)c2c(C)c(C(=O)N3CCC(O)(CO)CC3)sc2n(CCC(F)(F)F)c1=O [Example 74, 3-Ethyl-6-{[4-hydroxy-4-(hydroxymethyl)piperidin-1-yl]carbonyl}-5-methyl-1-(3,3,3-trifluoropropyl)thieno[2,3-d]pyrimidine-2,4(1H,3H)-dione] | 110 | 250

These reach a lower IC50 [1]. Values come first.

IC50 [1] [nM] | SMILES | IC50 [2] [nM]
35 | CCc1c(C(=O)N2CCC(O)(CO)CC2)sc2c1c(=O)n(CC)c(=O)n2CCC(F)(F)F [Example 89, 3,5-Diethyl-6-{[4-hydroxy-4-(hydroxymethyl)piperidin-1-yl]carbonyl}-1-(3,3,3-trifluoropropyl)thieno[2,3-d]pyrimidine-2,4(1H,3H)-dione] | 48
26 | O=C1CN(C(=O)c2sc3c(c2C(F)(F)F)c(=O)n(CCc2ccccc2)c(=O)n3CCC(F)(F)F)CCN1 [Example 41, 6-[(3-Oxopiperazin-1-yl)carbonyl]-3-(2-phenylethyl)-5-(trifluoromethyl)-1-(3,3,3-trifluoropropyl)thieno[2,3-d]pyrimidine-2,4(1H,3H)-dione] | 29
8.7 | CCc1c(C(=O)N2CCC(C)(O)CC2)sc2c1c(=O)n(CC)c(=O)n2CCC(F)(F)F [Example 88, 3,5-Diethyl-6-[(4-hydroxy-4-methylpiperidin-1-yl)carbonyl]-1-(3,3,3-trifluoropropyl)thieno[2,3-d]pyrimidine-2,4(1H,3H)-dione] | 9

Source: US9604996B2 (Bayer Pharma Aktiengesellschaft, priority 2013, dated 2017)
